Where two headings read alike, the source gives them in different places.
Test system: Escherichia coli (ATCC25922) or Staphylococcus aureus (ATCC25923)
Experiment: Antibacterial MIC, microdilution method in Mueller-Hinton medium
Assay type: cell-based
Conditions: for MIC: Escherichia coli, 18 h, read-out: Potency (MIC)
Procedure, shortened: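 Read after 18 h incubation at 35° C, MIC is the lowest compound level that blocked growth. Compounds were tested in duplicate over 64–0.5 μg/ml two-fold dilutions using Mueller-Hinton microdilution per NCCLS standard.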

[1] = MIC in E. coli or S. aureus, two-fold serial dilutions 64 to 0.5 μg/ml in duplicate, 18 hours of incubation at 35° C.

Row | SMILES | MIC [µg/mL] | MIC [1] [µg/mL] | also measured
1 | N[C@@H]1C[C@H](N)CN(c2nc(NCCc3ccc(Cl)cc3Cl)nc(N3C[C@H](N)C[C@H](N)C3)n2)C1 [N-[2-(2,4-dichloro-phenyl)-ethyl]-4,6-Bis-((3R,5S)-3,5-diamino-piperidin-1-yl)-[1,3,5]triazine-2-amine] | > 64 | – | –
2 | Cc1ccc(S(=O)(=O)N(Cc2ccccc2)c2ccc(Nc3nc(NCCCn4ccnc4)nc(N4C[C@H](N)C[C@H](N)C4)n3)cc2O)cc1 [N-Benzyl-N-{4-[4-((3R,5S)-3,5-diamino-piperidin-1-yl)-6-(3-imidazol-1-yl-propylamino)-[1,3,5]triazin-2-ylamino]-2-hydroxy-phenyl}-4-methyl-benzenesulfonamide] | – | < 64 | –
3 | CCN(C)CCNC(=O)c1ccc(NC(=O)CC(=O)c2ccc(Nc3nc(N4CCCCC4)nc(N4CCCCC4)n3)cc2)cc1.Cl [N-(4-{2-[4-(2-diethylamino-ethylcarbamoyl)-phhenylcxarbamoyl]-acetyl}-phenyl)-4,6-Bis-((3R,5S)-3,5-diamino-piperidin-1-yl)-[1,3,5]triazine-2-amine] | – | > 64 | –
4 | N[C@@H]1C[C@H](N)CN(c2nc(Nc3ccc(Br)cc3)nc(N3C[C@H](N)C[C@H](N)C3)n2)C1 [N-(4-bromo-phenyl)-4,6-Bis-((3R,5S)-3,5-diamino-piperidin-1-yl)-[1,3,5]triazine-2-amine] | – | > 64 | –
5 | N[C@@H]1C[C@H](N)CN(c2nc(Nc3ccc(NC(=O)c4ccc(Cl)cc4)c(O)c3)nc(N3CCN(CC(=O)N4CCOCC4)CC3)n2)C1 [4-Chloro-N-(4-{4-((3S,5R)-3,5-diamino-piperidin-1-yl)-6-[4-(2-morpholin-4-yl-2-oxo-ethyl)-piperazin-1-yl]-[1,3,5]triazin-2-ylamino}-2-hydroxy-phenyl)-benzamide] | > 64 | – | –
6 | Cc1cc(C)c(S(=O)(=O)Nc2ccc(Nc3nc(N4CCCCC4)nc(N4CCCCC4)n3)cc2O)c(C)c1.Cl [N-[3-hydroxy-(2,4,6-trimethyl-benzenesulfonylamino)-phenyl]-4,6-Bis-((3R,5S)-3,5-diamino-pperidin-1-yl)-[1,3,5]triazine-2-amine] | – | < 64 | –
7 | N[C@@H]1C[C@H](N)CN(c2nc(Nc3ccccc3S(N)(=O)=O)nc(N3C[C@H](N)C[C@H](N)C3)n2)C1 [N-(2-sulfamoyl-phenyl)-4,6-Bis-((3R,5S)-3,5-diamino-piperidin-1-yl)-[1,3,5]triazine-2-amine] | – | > 64 | –
8 | NC[C@@H]1C[C@H](CN)CN(c2nc(Nc3ccc(S(=O)(=O)Nc4ccc5cn[nH]c5c4)cc3)nc(N3C[C@H](N)C[C@H](N)C3)n2)C1 [4-[4-((3R,5S)-3,5-Bis-(aminomethyl)-piperidin-1-yl)-6-((3R,5S)-3,5-diamino-piperidin-1-yl)-[1,3,5]triazin-2-ylamino]-N-(1H-indazol-6-yl)-benzenesulfonamide] | > 64 | – | –
9 | Cc1ccc(S(=O)(=O)N(Cc2ccccc2)c2ccc(Nc3nc(N4C[C@H](N)C[C@H](N)C4)nc(N4CC[C@H](O)[C@@H]4CN)n3)c(O)c2)cc1 | – | – | Potency (MIC) [1]: + (+ means MIC<64 μg/ml in E. coli or S. aureus)
10 | COc1cccc(C(=O)Nc2ccc(Nc3nc(N4C[C@H](N)C[C@H](N)C4)nc(N4C[C@H](N)C[C@H](N)C4)n3)cc2)c1O [N-[4-(2-hydroxy-3-methoxy-benzoylamino)-phenyl]-4,6-Bis-((3R,5S)-3,5-diamino-piperidin-1-yl)-[1,3,5]triazine-2-amine] | < 64 | – | –
11 | COc1cccc(S(=O)(=O)Nc2ccc(Nc3nc(N4C[C@H](N)C[C@H](N)C4)nc(N4C[C@H](N)C[C@H](N)C4)n3)cc2O)c1 [N-[3-hydroxy-4-(3-methoxy-benzenesulfonylamino)-phenyl]-4,6-Bis-((3R,5S)-3,5-diamino-piperidin-1-yl)-[1,3,5]triazine-2-amine] | < 64 | – | –
12 | Cl.O=C(Nc1ccc(Nc2nc(N3CCCCC3)nc(N3CCCCC3)n2)cc1Cl)c1ccc(F)c(F)c1O [N-[3-chloro-4-(3,4-difluoro-2-hydroxy-benzoylamino)-pheny]-4,6-Bis-((3R,5S)-3,5-diamino-piperidin-1-yl)-[1,3,5]triazine-2-ammine] | – | < 16 | –

Reference: patent US7223759B2, “Antibacterial 3,5-diaminopiperidine-substituted aromatic and heteroaromatic compounds” (Anadys Pharmaceuticals, Inc., priority 2003, dated 2007)
